Results from patent US7517523B2, “Anti-MIF antibodies” (Cytokine PharmaSciences, Inc., priority 1993, dated 2009).

Assays:
RAW macrophages = experiment: Inhibition of the macrophage MIF response to dexamethasone; format: cell-based, mouse; conditions: pretreatment and co-administration, 10^−6M
Procedure: RAW 264.7 murine macrophages were obtained from the American Type Culture Collection (Rockville, Md.). Cells were grown in RPMI 1640 medium (Gibco, Grand Island, N.Y.), 10% heat-inactivated fetal bovine serum (FBS) (HyClone, Logan, Utah), 50 μg/ml of carbenicillin and gentamicin. […] After 3 h of incubation at 37° C. in a humidified atmosphere with 5% CO2, nonadherent cells were removed and wells were washed twice with RPMI/1% FBS. In some experiments designed to test for inhibition of MIF release, test compounds were then added to the culture media. For example, the cells were pre-treated with 20α-dihydrocorticol at a final concentration of 10^−6M. Cells then were incubated for 12-15 h with various steroids at concentrations ranging from 10^−6M to […] (e.q., dexamethasone), along with the desired test compound (e.g., 20α-dihydrocortisol) if any. At the end of experiment, cell culture media were collected and centrifuged (10 min at 800 g). Cell-conditioned media were concentrated 10-fold by membrane filtration (10 kDa cut-off) (Centricon-10, Amicon, Beverly, N.Y.).
Samples were resolved on 18% SDS polyacrylamide gels under reducing conditions and transferred onto nitrocellulose membrane (Schleicher and Schuell, Keene, N.H.) at 50 V and 150 mA for 16 h. […]

Peritoneal Macrophages = experiment: Steroid-induced MIF secretion by peritoneal macrophages; format: cell-based, mouse; conditions: 12 to 15 h
Procedure: Cells were incubated for 12 to 15 h with various steroids (at concentrations ranging from 10^−6M to 10^−14M).
Samples were resolved on 18% SDS polyacrylamide gels under reducing conditions and transferred onto nitrocellulose membrane (Schleicher and Schuell, Keene, N.H.) at 50 V and 150 mA for 16 h. Membranes were blocked with 500 mM NaCl, 50 mM Tris-Base, pH 7.5 buffer containing 5% nonfat dry milk and 0.05% Tween-20 and incubated first with polyclonal anti-rMIF serum and then with horseradish peroxidase-conjugated goat anti-rabbit IgG antibody (each diluted 1:1000 in 500 mM NaCl, 50 mM Tris-Base, pH 7.5 buffer with 1% BSA). […] Incubations were 1 h each. MIF was visualized by development with chloronaphtol/H2O2 or with TMB substrate.

[1] = system: Sprague-Dawley female rats; experiment: Serum MIF after i.v. steroid injection; format: in vivo, rat; conditions: 10 mg/kg i.v., serum Western blotting
Procedure: Canulated Sprague-Dawley female rats were purchased from Zivic-Miller. Animals were housed with free access to food and water and were acclimatized for at least 2 days prior to experimentation. Rats were injected i.v. through the jugular vein with either dexamethasone (1, 10 or 20 mg/kg), or with RU38486 (mifepristone) (1 or 10 mg/kg), or with the two drugs together (both at 10 mg/kg, RU38486 was injected 15 min. before dexamethasone). Serum was collected 3, 6, and 9 hours post-steroids injection and analyzed by Western blotting with anti-MIF antibody.

AtT-20 pituitary cells = experiment: MIF release from pituitary (AtT-20) cells (Western blotting); format: cell-based, mouse; conditions: 1-100 ng/ml
Procedure: AtT-20 cells were cultured for 24 hours in serum-free medium (enriched serum-free Joklik's medium from Gibco) containing various concentrations of LPS (E. coli LPS 0111:B4 from Sigma) at 0.5 μg/ml-50 μg/ml. […] This protein was transferred to polyvinylidene difluoride membrane and its primary N-terminal amino acid sequence was determined by automated gas-phase sequencing (Applied Biosystems).
MIF release from pituitary (AtT-20) cells was analyzed by Western blotting with anti-MIF antibody (FIG. 8). 1.5×10^5 pituitary cells were cultured serum-free for 18 h with different concentrations of LPS. After transfer, nitrocellulose membranes were incubated with rabbit anti-rMIF serum (1:1000 dilution) and bound antibody visualized with horseradish peroxidase-conjugated goat anti-rabbit antibody. 100 ng of rMIF was electrophoresed on the same gel for reference. Control supernatants (C) contained 1 μg/ml LPS that was added after removal of cells.

[2] = system: thioglycollate-elicited peritoneal macrophages; experiment: MIF secretion by thioglycollate-elicited peritoneal macrophages stimulated with LPS or IFNγ plus LPS; format: cell-based, mouse; conditions: IFNγ 100 IU/ml given 1 h prior to LPS
Procedure: After 3 h of incubation at 37° C. in a humidified atmosphere with 5% CO2, nonadherent cells were removed and wells were washed twice with RPMI/1% FBS. Cells then were incubated for 12 h with LPS (at concentrations ranging from 1 pg/ml to 1 μg/ml) or with cytokines (1 or 10 ng/ml for TNFα, IL-1β, and IL-6, and 10, 100 or 1000 IU/ml for IFNγ) diluted in RPMI/1% FBS. For time-course experiments, conditioned media of parallel cultures were removed at 3, 6, 9, 12 and 15 h intervals after LPS stimulation. […] Cells were incubated for 12 h either with LPS or with IFNγ plus LPS. When co-stimulated with IFNγ and LPS, cells were first incubated for an hour with IFNγ (100 IU/ml) before addition of LPS at the indicated concentrations. At the end of each experiment, cell-culture media were collected, centrifuged (10 min at 800 g), and supplemented with PMSF (1 mM). Supernatants then were concentrated 10-fold by membrane filtration (10 kD cut-off) (Centricon-10, Amicon, Beverly, N.Y.). […]
For Western blotting, samples were resolved on 18% SDS polyacrylamide gels under reducing conditions and transferred onto nitrocellulose membrane (Schleicher and Schuell, Keene, N.H.) at 50 V and 150 mA for 16 h. […] Serum MIF bands were quantified by laser densitometry (Shimadzu FDU-3, CS-9000U, Braintree, Mass.). Faint densitometric signals in the MIF region were detected in most sera prior to LPS administration (0 h). […]

C[C@]12CCC(=O)C=C1CC[C@@H]1[C@@H]2[C@@H](O)C[C@@]2(C)[C@H]1CC[C@]2(O)[C@@H](O)CO [4-pregnene-11β,17α,20α,21-tetrol-3-one]
Effect on the MIF response to dexamethasone (RAW macrophages): attenuates or abolishes
Range of Steroid Concentrations Inducing MIF in Peritoneal Macrophages (Peritoneal Macrophages): 10^−10 to 10^−14 M

C[C@]12CCC(=O)C=C1CC[C@@H]1[C@@H]2[C@@H](O)C[C@]2(C=O)[C@@H](C(=O)CO)CC[C@@H]12 [Aldosterone]
Range of Steroid Concentrations Inducing MIF in Peritoneal Macrophages (Peritoneal Macrophages): 10^−8 to 10^−14 M

C[C@@H]1C[C@H]2[C@@H]3CCC4=CC(=O)C=C[C@]4(C)[C@@]3(F)[C@@H](O)C[C@]2(C)[C@@]1(O)C(=O)CO [Dexamethasone]
Range of Steroid Concentrations Inducing MIF in Peritoneal Macrophages (Peritoneal Macrophages): 10^−8 to 10^−12 M

C[C@]12CCC(=O)C=C1CC[C@@H]1[C@@H]2[C@@H](O)C[C@@]2(C)[C@H]1CC[C@]2(O)C(=O)CO [Hydrocortisone]
Range of Steroid Concentrations Inducing MIF in Peritoneal Macrophages (Peritoneal Macrophages): 10^−8 to 10^−16 M

CC#C[C@]1(O)CC[C@H]2[C@@H]3CCC4=CC(=O)CCC4=C3[C@@H](c3ccc(N(C)C)cc3)C[C@@]21C [RU-38486 (mifepristone), mifepristone]
MIF secretion in vivo [1]: induced MIF secretion

C[C@]12CC[C@H]3[C@@H](CCC4=CC(=O)CC[C@@]43C)[C@@H]1CC[C@@H]2O [Testosterone]
Range of Steroid Concentrations Inducing MIF in Peritoneal Macrophages (Peritoneal Macrophages): 10^−8 to 10^−14 M

B1: IFNγ: recombinant murine IFNγ (protein, UniProt P01580 23-155, looked up)
Interferon gamma: HGTVIESLESLNNYFNSSGIDVEEKSLFLDIWRNWQKDGDMKILQSQIISFYLRLFEVLKDNQAISNNISVIESHLITTFFSNSKAKKDAFMSIAKFEVNNPQVQRQAFNELIRVVHQLLPESSLRKRKRSRC
MIF release from pituitary cells (AtT-20 pituitary cells): not released
Increase in LPS responsiveness on co-stimulation [2]: > 1000 fold

B2: TNFα: recombinant murine TNFα (protein)
chain: LRSSSQNSSDKPVAHVVANHQVEEQLEWLSQRANALLANGMDLKDNQLVVPADGLYLVYSQVLFKGQGCPDYVLLTHTVSRFAISYQEKVNLLSAVKSPCPKDTPEGAELKPWYEPIYLGGVFQLEKGDQLSAEVNLPKYLDFAESGQVYFGVIAL
MIF release from pituitary cells (AtT-20 pituitary cells): not released

B3: IL-1β: recombinant murine IL-1β (protein, UniProt P10749 118-269, looked up)
Interleukin-1 beta: VPIRQLHYRLRDEQQKSLVLSDPYELKALHLNGQNINQQVIFSMSFVQGEPSNDKIPVALGLKGKNLYLSCVMKDGTPTLQLESVDPKQYPKKKMEKRFVFNKIEVKSKVEFESAEFPNWYISTSQAEHKPVFLGNNSGQDIIDFTMESVSS
MIF release from pituitary cells (AtT-20 pituitary cells): not released

B4: IL-6: recombinant murine IL-6 (protein, UniProt P08505 25-211, looked up)
Interleukin-6: FPTSQVRRGDFTEDTTPNRPVYTTSQVGGLITHVLWEIVEMRKELCNGNSDCMNNDDALAENNLKLPEIQRNDGCYQTGYNQEICLLKISSGLLEYHSYLEYMKNNLKDNKKDKARVLQRDTETLIHIFNQEVKDLHKIVLPTPISNALLTDKLESQKEWLRTKTIQFILKSLEEFLKVTLRSTRQT
MIF release from pituitary cells (AtT-20 pituitary cells): not released
